We go through 4 molecules from article PMC3914206.

Experiment [1] concerns the target T1, panel of 442 kinases (Homo sapiens, UniProt P00519, M351T).
T1 construct: purchased KINOMEscan
The experiment is classed as binding. The arrangement: KINOMEscan: ABL1(F317L)-phosphorylated / KINOMEscan: ABL1(H396P)-nonphosphorylated / KINOMEscan: ABL1(H396P)-phosphorylated / KINOMEscan: ABL1(M351T)-phosphorylated / KINOMEscan: ABL1(T315I)-phosphorylated / KINOMEscan: ABL1-nonphosphorylated / KINOMEscan: ABL1-phosphorylated / KINOMEscan: ACVR2A / KINOMEscan: ACVR2B / KINOMEscan: ADCK3 / KINOMEscan: ADCK4 / KINOMEscan: AKT1 / KINOMEscan: AKT3 / KINOMEscan: ALK / KINOMEscan: ARK5 / KINOMEscan: AURKA / KINOMEscan: AURKC / KINOMEscan: BIKE / KINOMEscan: BMPR1A / KINOMEscan: BMPR1B / KINOMEscan: BMX / KINOMEscan: BRK / KINOMEscan: BRSK1 / KINOMEscan: BRSK2 / KINOMEscan: CAMK1 / KINOMEscan: CAMK1D / KINOMEscan: CAMK1G / KINOMEscan: CAMK2A / KINOMEscan: CAMK2B / KINOMEscan: AAK1 / KINOMEscan: CAMK2D / KINOMEscan: CAMK2G / KINOMEscan: ABL1(F317I)-nonphosphorylated / KINOMEscan: ABL1(F317I)-phosphorylated / KINOMEscan: ABL1(F317L)-nonphosphorylated: unit: % Ctrl. The conditions noted are these: Compound Concentration 10 µM. An excerpt: (§1) We assessed the selectivity of members of this scaffold using the KINOMEscan methodology across a near comprehensive panel of 442 kinases [[18,27]].

Experiment [2] deals with T2, panel of 442 kinases (Homo sapiens, UniProt Q92630).
T2 construct: purchased KINOMEscan
T2 sequence (Q92630 1-601): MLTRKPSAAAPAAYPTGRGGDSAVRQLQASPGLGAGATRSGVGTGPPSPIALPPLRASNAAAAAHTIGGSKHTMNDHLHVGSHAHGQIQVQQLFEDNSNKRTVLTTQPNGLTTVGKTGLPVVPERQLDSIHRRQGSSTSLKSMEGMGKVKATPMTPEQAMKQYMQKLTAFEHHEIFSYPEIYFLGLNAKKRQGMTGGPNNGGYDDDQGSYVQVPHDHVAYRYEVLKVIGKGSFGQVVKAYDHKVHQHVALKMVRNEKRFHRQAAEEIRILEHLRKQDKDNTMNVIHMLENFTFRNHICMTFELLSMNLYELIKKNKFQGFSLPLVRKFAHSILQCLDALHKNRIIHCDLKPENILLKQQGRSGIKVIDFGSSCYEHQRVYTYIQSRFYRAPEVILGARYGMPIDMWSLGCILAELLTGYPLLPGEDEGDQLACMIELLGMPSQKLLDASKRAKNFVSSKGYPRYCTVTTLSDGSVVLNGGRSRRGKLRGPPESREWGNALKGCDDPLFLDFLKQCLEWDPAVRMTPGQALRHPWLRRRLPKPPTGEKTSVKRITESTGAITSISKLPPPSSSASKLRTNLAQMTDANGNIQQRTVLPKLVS
The experiment is classed as binding. Also noted: KINOMEscan: ABL1(F317L)-phosphorylated / KINOMEscan: ABL1(H396P)-nonphosphorylated / KINOMEscan: ABL1(H396P)-phosphorylated / KINOMEscan: ABL1(M351T)-phosphorylated / KINOMEscan: ABL1(T315I)-phosphorylated / KINOMEscan: ABL1-nonphosphorylated / KINOMEscan: ABL1-phosphorylated / KINOMEscan: ACVR2A / KINOMEscan: ACVR2B / KINOMEscan: ADCK3 / KINOMEscan: ADCK4 / KINOMEscan: AKT1 / KINOMEscan: AKT3 / KINOMEscan: ALK / KINOMEscan: ARK5 / KINOMEscan: AURKA / KINOMEscan: AURKC / KINOMEscan: BIKE / KINOMEscan: BMPR1A / KINOMEscan: BMPR1B / KINOMEscan: BMX / KINOMEscan: BRK / KINOMEscan: BRSK1 / KINOMEscan: BRSK2 / KINOMEscan: CAMK1 / KINOMEscan: CAMK1D / KINOMEscan: CAMK1G / KINOMEscan: CAMK2A / KINOMEscan: CAMK2B / KINOMEscan: AAK1 / KINOMEscan: CAMK2D / KINOMEscan: CAMK2G / KINOMEscan: ABL1(F317I)-nonphosphorylated / KINOMEscan: ABL1(F317I)-phosphorylated / KINOMEscan: ABL1(F317L)-nonphosphorylated: unit: % Ctrl. To be noted: Compound Concentration 10 µM.
Source text: as §1

On to `COc1cc(C(=O)N2CCC(N3CCN(C)CC3)CC2)ccc1Nc1ncc2c(n1)N(C1CCCC1)c1ccccc1C(=O)N2C` [Compound 25, 11-cyclopentyl-2-((2-methoxy-4-(4-(4-methylpiperazin-1-yl)piperidine-1-carbonyl)phenyl)amino)-5-methyl-5H-benzo[e]pyrimido[5,4-b][1,4]diazepin-6(11H)-one], for which, at panel of 442 kinases [1], the “KINOMEscan: ABL1(M351T)-phosphorylated” value was found to be 80. In addition, on panel of 442 kinases [2], the “KINOMEscan: DYRK2” value is reported as 100.
Regarding `COc1cc(C(=O)N2CCC(N3CCN(C)CC3)CC2)ccc1Nc1ncc2c(n1)N1CCc3cccc(c31)C(=O)N2C` [Compound 24], the “KINOMEscan: ABL1(M351T)-phosphorylated” value at panel of 442 kinases [1] was determined as 77. Also, the “KINOMEscan: DYRK2” value at panel of 442 kinases [2] is given as 82.
The corresponding values for `COc1cc(C(=O)N2CCC(N3CCN(C)CC3)CC2)ccc1Nc1ncc2c(n1)N(C)c1ccccc1C(=O)N2C` [15 (LRRK2-IN-1)] are 94 and 76.
On to `CCOc1cc(C(=O)N2CCC(N3CCN(C)CC3)CC2)ccc1Nc1ncc2c(n1)N(C1CCCC1)c1ccccc1C(=O)N2C` [Compound 26], for which, at panel of 442 kinases [1], the “KINOMEscan: ABL1(M351T)-phosphorylated” value is 89. The “KINOMEscan: DYRK2” value on panel of 442 kinases [2] was found to be 100.
